# From BindingDB's records for patent US20250387388 (Medinno Pharmaceutical Technology (Zhuhai) Co., 2025)
# How the values were obtained:
# [1] = target: BDNF/NT-3 growth factors receptor (Homo sapiens, UniProt Q16620); assay: Inhibitory Activity of Compounds on TRKA, TRKB and TRKC
# [2] = target: High affinity nerve growth factor receptor (Homo sapiens, UniProt P04629); assay: as above
# [3] = target: NT-3 growth factor receptor (Homo sapiens, UniProt Q16288); assay: as above
# [4] = target: Proto-oncogene tyrosine-protein kinase receptor Ret (Homo sapiens, UniProt P07949); assay: Inhibitory Activity of Compounds on RET Kinase
# Sequence of Proto-oncogene tyrosine-protein kinase receptor Ret (P07949 whole entry): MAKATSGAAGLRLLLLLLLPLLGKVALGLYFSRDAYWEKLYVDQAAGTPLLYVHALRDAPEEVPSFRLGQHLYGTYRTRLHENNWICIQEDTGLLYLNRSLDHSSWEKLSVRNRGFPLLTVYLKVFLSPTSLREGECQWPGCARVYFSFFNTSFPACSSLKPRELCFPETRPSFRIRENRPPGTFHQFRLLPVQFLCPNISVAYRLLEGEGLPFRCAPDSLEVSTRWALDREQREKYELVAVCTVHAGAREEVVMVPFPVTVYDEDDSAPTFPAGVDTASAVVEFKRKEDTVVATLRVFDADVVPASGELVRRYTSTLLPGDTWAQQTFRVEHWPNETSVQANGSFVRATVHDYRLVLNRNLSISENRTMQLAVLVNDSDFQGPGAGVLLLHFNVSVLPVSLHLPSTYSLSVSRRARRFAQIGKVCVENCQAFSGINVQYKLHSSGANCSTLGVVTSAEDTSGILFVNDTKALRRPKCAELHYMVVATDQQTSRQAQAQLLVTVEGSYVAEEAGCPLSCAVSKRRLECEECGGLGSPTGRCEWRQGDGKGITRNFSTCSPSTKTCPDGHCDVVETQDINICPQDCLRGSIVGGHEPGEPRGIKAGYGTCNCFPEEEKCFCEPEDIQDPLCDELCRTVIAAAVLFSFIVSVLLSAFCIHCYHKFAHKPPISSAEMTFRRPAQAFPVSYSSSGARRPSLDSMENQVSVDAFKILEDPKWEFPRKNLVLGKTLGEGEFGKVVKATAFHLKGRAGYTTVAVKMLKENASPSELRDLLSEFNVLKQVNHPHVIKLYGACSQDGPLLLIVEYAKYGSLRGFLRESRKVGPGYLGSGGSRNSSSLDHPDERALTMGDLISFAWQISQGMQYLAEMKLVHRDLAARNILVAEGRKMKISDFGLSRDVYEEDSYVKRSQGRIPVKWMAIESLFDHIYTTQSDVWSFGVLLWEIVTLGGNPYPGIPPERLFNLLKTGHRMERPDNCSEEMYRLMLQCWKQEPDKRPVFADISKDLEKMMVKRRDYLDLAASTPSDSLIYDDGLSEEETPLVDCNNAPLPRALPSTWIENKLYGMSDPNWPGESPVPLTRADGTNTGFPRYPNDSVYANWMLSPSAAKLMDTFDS
# Sequence of BDNF/NT-3 growth factors receptor (Q16620 whole entry): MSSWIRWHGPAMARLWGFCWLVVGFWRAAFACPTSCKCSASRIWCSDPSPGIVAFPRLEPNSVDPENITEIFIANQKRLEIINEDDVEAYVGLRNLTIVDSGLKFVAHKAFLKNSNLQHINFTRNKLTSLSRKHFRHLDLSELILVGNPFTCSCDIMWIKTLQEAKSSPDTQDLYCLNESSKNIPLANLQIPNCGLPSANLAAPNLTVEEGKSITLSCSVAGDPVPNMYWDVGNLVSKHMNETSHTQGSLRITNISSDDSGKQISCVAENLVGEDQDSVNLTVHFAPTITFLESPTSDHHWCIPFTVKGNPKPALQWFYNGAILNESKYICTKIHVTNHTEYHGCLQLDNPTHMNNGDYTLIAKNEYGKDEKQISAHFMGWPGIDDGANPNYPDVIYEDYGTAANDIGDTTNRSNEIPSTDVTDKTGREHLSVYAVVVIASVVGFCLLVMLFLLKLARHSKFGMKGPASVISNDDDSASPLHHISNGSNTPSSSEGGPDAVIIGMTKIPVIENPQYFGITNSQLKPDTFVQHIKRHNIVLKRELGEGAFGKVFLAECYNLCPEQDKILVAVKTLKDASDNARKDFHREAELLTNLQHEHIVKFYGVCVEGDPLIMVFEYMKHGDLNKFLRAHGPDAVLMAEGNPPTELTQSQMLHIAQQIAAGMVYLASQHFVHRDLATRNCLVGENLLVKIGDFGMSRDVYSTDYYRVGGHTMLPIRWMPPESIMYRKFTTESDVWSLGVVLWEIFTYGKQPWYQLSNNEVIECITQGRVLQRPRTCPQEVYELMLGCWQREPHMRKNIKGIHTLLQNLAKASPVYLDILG
# Sequence of NT-3 growth factor receptor (Q16288 whole entry): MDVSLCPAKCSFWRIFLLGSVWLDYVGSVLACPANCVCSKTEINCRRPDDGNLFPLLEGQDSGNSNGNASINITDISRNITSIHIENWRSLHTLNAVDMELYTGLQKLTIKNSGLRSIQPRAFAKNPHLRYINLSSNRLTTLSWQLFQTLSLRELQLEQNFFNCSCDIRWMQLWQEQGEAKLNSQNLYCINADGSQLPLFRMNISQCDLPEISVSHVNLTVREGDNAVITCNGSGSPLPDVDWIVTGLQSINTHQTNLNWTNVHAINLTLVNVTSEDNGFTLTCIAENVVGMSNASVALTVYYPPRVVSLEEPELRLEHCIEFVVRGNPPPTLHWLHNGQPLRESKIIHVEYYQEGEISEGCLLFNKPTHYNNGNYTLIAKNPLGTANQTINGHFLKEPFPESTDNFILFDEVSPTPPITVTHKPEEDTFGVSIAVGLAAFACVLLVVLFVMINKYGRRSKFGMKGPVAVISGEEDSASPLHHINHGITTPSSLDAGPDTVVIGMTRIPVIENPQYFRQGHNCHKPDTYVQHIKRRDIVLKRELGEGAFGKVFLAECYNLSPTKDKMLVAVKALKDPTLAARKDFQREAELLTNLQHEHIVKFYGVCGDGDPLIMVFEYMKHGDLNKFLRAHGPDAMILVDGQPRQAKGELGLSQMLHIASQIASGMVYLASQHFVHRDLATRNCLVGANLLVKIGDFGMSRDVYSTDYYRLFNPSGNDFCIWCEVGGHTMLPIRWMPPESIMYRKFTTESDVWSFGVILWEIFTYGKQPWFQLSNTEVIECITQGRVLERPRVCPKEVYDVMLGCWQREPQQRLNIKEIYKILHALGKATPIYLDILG
# Sequence of High affinity nerve growth factor receptor (P04629 whole entry): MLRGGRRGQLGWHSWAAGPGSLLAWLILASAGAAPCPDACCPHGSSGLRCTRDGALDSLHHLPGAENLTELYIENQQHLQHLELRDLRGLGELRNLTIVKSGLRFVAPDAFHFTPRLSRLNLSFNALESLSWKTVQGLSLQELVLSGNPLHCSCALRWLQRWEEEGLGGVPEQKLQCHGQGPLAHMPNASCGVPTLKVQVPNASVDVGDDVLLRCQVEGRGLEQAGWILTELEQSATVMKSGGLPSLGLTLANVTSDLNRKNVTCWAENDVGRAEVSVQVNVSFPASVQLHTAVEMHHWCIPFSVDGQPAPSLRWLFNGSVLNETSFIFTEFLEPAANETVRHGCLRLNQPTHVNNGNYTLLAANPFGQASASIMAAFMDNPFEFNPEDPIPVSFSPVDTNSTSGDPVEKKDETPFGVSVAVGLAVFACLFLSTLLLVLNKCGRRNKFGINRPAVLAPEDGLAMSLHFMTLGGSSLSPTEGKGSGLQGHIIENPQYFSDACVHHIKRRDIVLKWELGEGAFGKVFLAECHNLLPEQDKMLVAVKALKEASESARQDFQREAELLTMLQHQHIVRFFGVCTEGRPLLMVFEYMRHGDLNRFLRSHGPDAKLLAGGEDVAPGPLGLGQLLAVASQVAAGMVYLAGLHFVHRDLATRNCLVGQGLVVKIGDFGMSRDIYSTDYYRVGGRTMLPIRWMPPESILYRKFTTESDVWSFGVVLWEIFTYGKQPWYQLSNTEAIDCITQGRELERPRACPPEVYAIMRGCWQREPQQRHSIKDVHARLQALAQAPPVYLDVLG
SMILES,IC50 [1] [nM],IC50 [2] [nM],IC50 [3] [nM],IC50 [4] [nM]
"CCc1cc(O)c(F)cc1-c1ccc2c(-c3nc4c([nH]3)CN(c3nc(N5CCOCC5)cnc3C(=O)c3ncc(N5CCOCC5)nc3N3Cc5nc(-c6n[nH]c7cc(-c8cc(F)c(O)cc8CC)ccc67)[nH]c5C3)C4)n[nH]c2c1 [US20250387388, Compound MDI-201]",6.14,5.76,2.2,–
"CCc1cc(O)c(F)cc1-c1ccc2c(-c3nc4c([nH]3)CN(C3CCCN3C(=O)N3CCCC3N3Cc5nc(-c6n[nH]c7cc(-c8cc(F)c(O)cc8CC)ccc67)[nH]c5C3)C4)n[nH]c2c1 (stereo not drawn) [US20250387388, Compound MDI-231]",5.86,2.82,1.49,–
"CCc1cc(O)c(F)cc1-c1ccc2c(-c3nc4c([nH]3)CN(C3CCCCN3C(=O)N3CCCCC3N3Cc5nc(-c6n[nH]c7cc(-c8cc(F)c(O)cc8CC)ccc67)[nH]c5C3)C4)n[nH]c2c1 (stereo not drawn) [US20250387388, Compound MDI-233]",30.4,9.01,6.32,–
"CCc1cc(O)c(F)cc1-c1ccc2c(-c3nc4c([nH]3)CN(C3CN(C(=O)N5CCOC(N6Cc7nc(-c8n[nH]c9cc(-c%10cc(F)c(O)cc%10CC)ccc89)[nH]c7C6)C5)CCO3)C4)n[nH]c2c1 (stereo not drawn) [US20250387388, Compound MDI-234]",1.27,1.07,0.65,–
"CCc1cc(O)c(F)cc1-c1ccc2c(-c3nc4c([nH]3)CN(C3CN(C)CCN3C(=O)N3CCN(C)CC3N3Cc5nc(-c6n[nH]c7cc(-c8cc(F)c(O)cc8CC)ccc67)[nH]c5C3)C4)n[nH]c2c1 (stereo not drawn) [US20250387388, Compound MDI-235]",1.39,0.57,0.27,0.1
"CCc1cc(O)c(F)cc1-c1ccc2c(-c3nc4c([nH]3)CN(C3CN(CC)CCN3C(=O)N3CCN(CC)CC3N3Cc5nc(-c6n[nH]c7cc(-c8cc(F)c(O)cc8CC)ccc67)[nH]c5C3)C4)n[nH]c2c1 (stereo not drawn) [US20250387388, Compound MDI-236]",1.06,0.23,0.2,–
"CCc1cc(O)c(F)cc1-c1ccc2c(-c3nc4c([nH]3)CN(C3CC(O)CCN3C(=O)N3CCC(O)CC3N3Cc5nc(-c6n[nH]c7cc(-c8cc(F)c(O)cc8CC)ccc67)[nH]c5C3)C4)n[nH]c2c1 (stereo not drawn) [US20250387388, Compound MDI-245]",3.37,0.83,0.57,0.99
